Source: PMC11934087, “Rational Design of Stapled Covalent Peptide Modifiers of Oncoprotein E6 from Human Papillomavirus” (ACS Chemical Biology, 2025)
Where a SMILES comes first, the peptide text is derived from it. Bridges are numbered along the chain shown (N, C = ends). [ ]: non-standard residue; d: D form. The star is where a group is joined. 5FAM = O=C1OC2(c3ccc(O)cc3Oc3cc(O)ccc32)c2ccc(C(=O)*)cc21; S5 = C=CCCC[C@](C)(N)C(=O)O; βAla = NCCC(=O)O

Experiments:
in vitro = conditions: bovine α-chymotrypsin (50 nM), pH 7.5
Description: (§1) Chymotrypsin was chosen due to its substrate selectivity for peptides containing hydrophobic side chains, including leucine, making the LxxLL motif a well-suited substrate for proteolytic cleavage by this protease.[54]
(§2) For each time point, a 50 μL aliquot was removed from the reaction mixture and quenched with 40 μL of 0.5% [v/v] trifluoroacetic acid in acetonitrile. Quenched samples were subsequently analyzed by analytical reverse-phase HPLC, and the remaining undigested peptide was quantified by integration of AUC. A plot of percent peptide remaining vs time was fit to a one-phase exponential decay to calculate half-life using GraphPad Prism software.

bovine α-chymotrypsin = bovine α-chymotrypsin (Bos taurus, UniProt P00766); assay: in vitro; conditions: 50 μM peptide, 50 nM bovine α-chymotrypsin, pH 7.5, room temp, 4 h; HPLC
Description: as §1, §2

[1] = target: T1, GST-E6 (GST-tagged HPV16 E6 protein) (Human papillomavirus type 16, UniProt P03126); assay: Noncompetitive fluorescence polarization (FP) binding assay; set-up: species or system Human Papillomavirus (HPV-16)
T1 construct: host or cells: E. coli BL21
T1 sequence (P03126 whole entry): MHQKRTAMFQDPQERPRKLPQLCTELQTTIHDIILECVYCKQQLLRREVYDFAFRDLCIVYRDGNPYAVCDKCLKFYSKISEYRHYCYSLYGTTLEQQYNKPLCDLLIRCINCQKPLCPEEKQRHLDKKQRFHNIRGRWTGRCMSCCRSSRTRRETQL
Description: An N-terminal carboxyfluorescein was included for FP analysis of binding affinity for both the natural backbone and the stapled peptides.
For noncompetitive FP experiments, varying concentrations of GST-E6 protein (38 μM; 10 point 2-fold serial dilution) were incubated with 30 nM fluorescently labeled peptides in buffer (10 μL total volume; 50 mM Tris, 200 mM NaCl, 1 mM DTT, 0.1% [v/v] Trition X-100) in black 384-well plates. For competitive FP experiments, 100 nM GST-E6 was incubated with 30 nM fluorescently labeled noncovalent peptide and varying concentrations (20 μM; 3-fold serial dilution) of covalent peptide in buffer (20 μL) with a final DMSO content of 0.5% [v/v]. Negative control (polarization reference; 30 nM fluorescent peptide, no protein) and blank reference (buffer alone) were included in triplicate for G-factor calibration. Sample plates were centrifuged (1 min, 500g) and incubated for 30 min at RT. Following incubation, FP at equilibrium was measured on a Tecan M1000 microplate reader (ex = 470 nm, em = 525; gain optimized, 200 flashes, 300 ms settle time, G-factor reference value 30 mP). Measured polarizations were fitted to a sigmoidal dose–response curve using GraphPad Prism software to generate KD values.

[2] = Circular dichroism spectroscopy, percent helicity; type: physicochemical; conditions: 50 μM peptide, 10 mM phosphate buffer pH 7.2, 0.5% DMSO, 20 °C
Description: To determine the secondary structure of peptides 1–11, CD was measured in an aqueous solution. […] The molar ellipticity ([θ]) at 222 nm was used to estimate the percent helicity of peptides in aqueous solutions and enable direct comparison of the helical content of peptides 1–11 (Figure 5C).[51],[52]
CD measurements were acquired on an Olis DSM17 CD spectrophotometer. Cells with a path length of 2 mm were used. Peptide solutions at 50 μM were prepared in 10 mM phosphate buffer (500 μL; pH = 7.2) containing 0.5% of DMSO, and exact concentrations were determined using fluorescein absorbance at 494 nm and a molar extinction coefficient of 82,000 cm^–1 M^–1.[59] Blank solutions of buffer without peptide were prepared for background subtraction. Scans were performed at 20 °C from 200 to 260 nm with increments of 1 nm, bandwidth of 2 nm, and a 5 s integration time. […] Helical content for peptides was calculated using a previously described method[52] that assumes that the peptide population only exists in two states, helical and random coil, and that the ellipticity contribution from the random coil population is negligible at 222 nm. […] This was calculated via the equation [θobs]222 = 43,000(1 – [x/n]), where x is the factor accounting for end effects, for which 2.5 was used, and n is the number of residues.[52]

Structure (SMILES): CC(C)C[C@H](NC(=O)[C@H](CC(C)C)NC(=O)[C@H](CCC(=O)O)NC(=O)[C@H](CCC(N)=O)NC(=O)[C@H](CC(C)C)NC(=O)[C@@H](NC(=O)[C@H](CC(C)C)NC(=O)[C@H](CCC(=O)O)NC(=O)[C@H](C)NC(=O)[C@H](C)NC(=O)[C@H](C)NC(=O)CCNC(=O)c1ccc2c(c1)C(=O)OC21c2ccc(O)cc2Oc2cc(O)ccc21)[C@@H](C)O)C(=O)NCC(N)=O [compound 1] ({5FAM-βAla}-AAAELTLQELLG-NH2)
- half-life at 50 μM (in vitro): 47 min
- degradation by chymotrypsin within 4 h (bovine α-chymotrypsin): complete degradation
- EC50 [1]: 2590 nM
- Kd [1]: 2590 nM

Structure (SMILES): CC(C)C[C@H](NC(=O)[C@H](CC(C)C)NC(=O)[C@H](CCC(=O)O)NC(=O)[C@]1(C)CCCC=CCCC[C@](C)(NC(=O)[C@H](C)NC(=O)[C@H](C)NC(=O)[C@H](C)NC(=O)CCNC(=O)c2ccc3c(c2)C(=O)OC32c3ccc(O)cc3Oc3cc(O)ccc32)C(=O)N[C@@H](CC(C)C)C(=O)N[C@@H]([C@@H](C)O)C(=O)N[C@@H](CC(C)C)C(=O)N1)C(=O)NCC(N)=O [compound 6] ({5FAM-βAla}-AAA[S5]LTL[S5]ELLG-NH2; staple 4-8)
- Percent helicity from molar ellipticity at 222 nm (CD) [2]: 22%
- Kd [1]: ≥ 38000 nM
